Active and inactive are the calls of the source. The calls are words filed in the database; no cut-off is given here.
Tests used:
CWR22R [1] = test: Antiproliferative activity against AR-v7 positive human 22Rv1 cells measured after 3 days by celltiter-glo luminescence assay; format: functional, cell-based; conditions: Homo sapiens, 22Rv1, 72 h; read-out: IC50
PC-3 = test: Antiproliferative activity against human PC-3 cells measured after 3 days by celltiter-glo luminescence assay; format: functional, cell-based; conditions: PC-3, 72 h
[2] = Antiproliferative activity against Ar-luc mouse Adipose stromal cell measured after 3 days by celltiter-glo luminescence assay; format: toxicity, cell-based; conditions: Ar-luc mouse adipose stromal cells
Papain = biological target: T1, Papain (Carica papaya, UniProt P00784); test: Inhibition of papaya papain protease activity assessed as covalent binding mode of action at 10 uM incubated for 30 mins by absorbance based analysis; conditions: 0.5 h
T1 sequence (P00784 whole entry): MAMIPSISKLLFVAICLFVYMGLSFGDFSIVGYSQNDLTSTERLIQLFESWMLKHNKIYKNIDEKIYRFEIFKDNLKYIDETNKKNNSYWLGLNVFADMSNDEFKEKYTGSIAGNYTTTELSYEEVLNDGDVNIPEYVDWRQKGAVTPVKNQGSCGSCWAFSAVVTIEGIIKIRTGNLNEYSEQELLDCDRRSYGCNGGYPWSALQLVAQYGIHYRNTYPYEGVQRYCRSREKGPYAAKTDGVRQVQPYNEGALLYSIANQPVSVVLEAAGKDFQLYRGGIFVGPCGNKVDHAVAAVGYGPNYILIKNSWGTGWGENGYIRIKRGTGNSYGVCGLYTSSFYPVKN

[3] = C0 in rat at 5 mg/kg, iv measured upto 24 hrs by LC-MS/MS analysis; format: ADME, organism-based; conditions: in vivo
[4] = Elimination rate constant in rat at 5 mg/kg, iv measured upto 24 hrs by LC-MS/MS analysis; format: ADME, organism-based; conditions: in vivo
[5] = Half life in rat at 5 mg/kg, iv measured upto 24 hrs by LC-MS/MS analysis; format: ADME, organism-based; conditions: in vivo
[6] = MRT (0 to infinity) in rat at 5 mg/kg, iv measured upto 24 hrs by LC-MS/MS analysis; format: ADME, organism-based; conditions: in vivo
[7] = AUC (0 to t) in rat at 5 mg/kg, iv measured upto 24 hrs by LC-MS/MS analysis; format: ADME, organism-based; parameters: dose 5 mg/kg, time < 24 hrs, route iv; conditions: in vivo
[8] = AUC (0 to infinity) in rat at 5 mg/kg, iv measured upto 24 hrs by LC-MS/MS analysis; format: ADME, organism-based; parameters: time < 24 hrs, dose 5 mg/kg, route iv; conditions: in vivo
[9] = Volume of distribution at steady state in rat at 5 mg/kg, iv measured upto 24 hrs by LC-MS/MS analysis; format: ADME, organism-based; conditions: in vivo, read-out: Vdss
CWR22R [10] = test: Antitumor activity against human 22Rv1 cells xenografted in NOD-SCID mouse assessed as inhibition of tumor growth at 10 mg/kg/day, ip measured upto 20 days; format: functional, organism-based; conditions: time <= 20.0 day
[11] = Toxicity in NOD-SCID mouse assessed as effect on body weight loss at 10 mg/kg/day, ip measured upto 20 days; format: organism-based; conditions: in vivo, 480 h, time < 20 day
[12] = Partition coefficient, logD of the compound at pH 7.4 by HPLC analysis; format: physicochemical; conditions: octanol/water
[13] = Kinetic solubility of the compound in 0.01 M HCl at pH 2 after 30 mins by nephelometry; format: physicochemical; conditions: read-out: Kinetic_solubility
[14] = Kinetic solubility of the compound in phosphate buffer at pH 6.5 after 30 mins by nephelometry; format: physicochemical; conditions: read-out: Kinetic_solubility
[15] = Metabolic stability in mouse liver microsomes assessed as half life incubated for 60 mins in presence of NADPH-regenerating system; format: ADME, Microsome; conditions: liver microsomes
CWR22R [16] = test: Downregulation of androgen receptor in human 22Rv1 cells measured for 24 to 36 hrs by Western blot analysis; format: functional, cell-based; conditions: dose 0.5-10 µM, time 24-36 hrs
CWR22R [17] = test: Downregulation of AR-v7 level in human 22Rv1 cells measured for 24 to 36 hrs by Western blot analysis; format: functional, cell-based; conditions: dose 0.5-10 µM, time 24-36 hrs
CWR22R [18] = test: Downregulation of Androgen receptor level in human 22Rv1 cells at 0.5 to 10 uM measured after 36 hrs by Western blot analysis; format: functional, cell-based; conditions: dose 0.5-10 µM
CWR22R [19] = test: Downregulation of AR genes expression in human 22Rv1 cells at 1 uM measured after 24 to 36 hrs by RNA sequencing analysis; format: functional, cell-based; conditions: time 24-36 hrs
CWR22R [20] = test: Downregulation of CDC6 gene expression in human 22Rv1 cells at 1 uM measured after 24 to 36 hrs by RNA sequencing analysis; format: functional, cell-based; conditions: time 24-36 hrs
CWR22R [21] = test: Downregulation of CDC25A gene expression in human 22Rv1 cells at 1 uM measured after 24 to 36 hrs by RNA sequencing analysis; format: functional, cell-based; conditions: time 24-36 hrs
CWR22R [22] = test: Downregulation of GREB1L gene expression in human 22Rv1 cells at 1 uM measured after 24 to 36 hrs by RNA sequencing analysis; format: functional, cell-based; conditions: time 24-36 hrs
CWR22R [23] = test: Downregulation of E2F gene expression in human 22Rv1 cells at 1 uM measured after 24 to 36 hrs by RNA sequencing analysis; format: functional, cell-based; conditions: time 24-36 hrs
CWR22R [24] = test: Downregulation of GRB10 gene expression in human 22Rv1 cells at 1 uM measured after 24 to 36 hrs by RNA sequencing analysis; format: functional, cell-based; conditions: time 24-36 hrs
CWR22R [25] = test: Downregulation of DDC gene expression in human 22Rv1 cells at 1 uM measured after 24 to 36 hrs by RNA sequencing analysis; format: functional, cell-based; conditions: time 24-36 hrs
CWR22R [26] = test: Downregulation of SKP2 gene expression in human 22Rv1 cells at 1 uM measured after 24 to 36 hrs by RNA sequencing analysis; format: functional, cell-based; conditions: time 24-36 hrs
CWR22R [27] = test: Downregulation of FEN1 gene expression in human 22Rv1 cells at 1 uM measured after 24 to 36 hrs by RNA sequencing analysis; format: functional, cell-based; conditions: time 24-36 hrs
CWR22R [28] = test: Downregulation of POLE2 gene expression in human 22Rv1 cells at 1 uM measured after 24 to 36 hrs by RNA sequencing analysis; format: functional, cell-based; conditions: time 24-36 hrs
CWR22R [29] = test: Downregulation of GINS1 gene expression in human 22Rv1 cells at 1 uM measured after 24 to 36 hrs by RNA sequencing analysis; format: functional, cell-based; conditions: time 24-36 hrs
CWR22R [30] = test: Downregulation of CDC7 gene expression in human 22Rv1 cells at 1 uM measured after 24 to 36 hrs by RNA sequencing analysis; format: functional, cell-based; conditions: time 24-36 hrs
CWR22R [31] = test: Downregulation of E2F1 gene expression in human 22Rv1 cells at 1 uM measured after 24 to 36 hrs by RNA sequencing analysis; format: functional, cell-based; conditions: time 24-36 hrs
CWR22R [32] = test: Downregulation of RRM2 gene expression in human 22Rv1 cells at 1 uM measured after 24 to 36 hrs by RNA sequencing analysis; format: functional, cell-based; conditions: time 24-36 hrs
CWR22R [33] = test: Downregulation of MYB gene expression in human 22Rv1 cells at 1 uM measured after 24 to 36 hrs by RNA sequencing analysis; format: functional, cell-based; conditions: time 24-36 hrs
CWR22R [34] = test: Downregulation of RAD51D gene expression in human 22Rv1 cells at 1 uM measured after 24 to 36 hrs by RNA sequencing analysis; format: functional, cell-based; conditions: time 24-36 hrs
CWR22R [35] = test: Downregulation of CHEK1 gene expression in human 22Rv1 cells at 1 uM measured after 24 to 36 hrs by RNA sequencing analysis; format: functional, cell-based; conditions: time 24-36 hrs
CWR22R [36] = test: Downregulation of MTBP gene expression in human 22Rv1 cells at 1 uM measured after 24 to 36 hrs by RNA sequencing analysis; format: functional, cell-based; conditions: time 24-36 hrs
CWR22R [37] = test: Downregulation of MYC gene expression in human 22Rv1 cells at 1 uM measured after 24 to 36 hrs by RNA sequencing analysis; format: functional, cell-based; conditions: time 24-36 hrs

Q: Which results are given for `Clc1ccc(COn2nnnc2-c2ccc(Cl)cc2)cc1`?
A: IC50 (CWR22R [1]): 0.011 µM; IC50 (PC-3): > 100 µM; IC50 at 3 days [2]: > 100 µM; inhibition (INH) (Papain): Not Active; C0 at 24 h [3]: 5480 ng/mL; k el at 24 h [4]: 0.000292 s⁻¹; half-life [5]: 55.1 min; MRT inf [6]: 20.2 min; AUC(0-t) at 24 h [7]: 1080 ng·h/mL; AUC(0-inf) [8]: 1100 ng·h/mL; Vd [9]: 1.53 L/kg; Activity (CWR22R [10]): Active; Activity [11]: Non-Toxic; logD [12]: 4.5; solubility kinetic at 0.5 h [13]: < 1.6 µg/mL; solubility kinetic at 0.5 h [14]: < 1.6 µg/mL; half-life [15]: 21 min; Activity (CWR22R [16]): Dose-Dependent Effect; Activity (CWR22R [17]): Dose-Dependent Effect; Activity (CWR22R [18]): Active; Activity (CWR22R [19]): Active; Activity (CWR22R [20]): Active; Activity (CWR22R [21]): Active; Activity (CWR22R [22]): Active; Activity (CWR22R [23]): Active; Activity (CWR22R [24]): Active; Activity (CWR22R [25]): Active; Activity (CWR22R [26]): Active; Activity (CWR22R [27]): Active; Activity (CWR22R [28]): Active; Activity (CWR22R [29]): Active; Activity (CWR22R [30]): Active; Activity (CWR22R [31]): Active; Activity (CWR22R [32]): Active; Activity (CWR22R [33]): Active; Activity (CWR22R [34]): Active; Activity (CWR22R [35]): Active; Activity (CWR22R [36]): Active; Activity (CWR22R [37]): Active
